Test [1] has as its target T1, prostacyclin receptor (IPR) (Homo sapiens, UniProt P43119).
T1 construct: gene PTGIR
The experiment in a line: cAMP accumulation (LANCE) in human lung fibroblasts, endogenous receptor; about […] blocked by IPR antagonist RO-1138452. The class given is cell-based.

Test [2] deals with T1, prostacyclin receptor (IPR). Nature of the test: cAMP accumulation (LANCE) in human lung fibroblasts, endogenous receptor; partial agonist. The test is classed as cell-based.

T1 sequence (P43119 1-383): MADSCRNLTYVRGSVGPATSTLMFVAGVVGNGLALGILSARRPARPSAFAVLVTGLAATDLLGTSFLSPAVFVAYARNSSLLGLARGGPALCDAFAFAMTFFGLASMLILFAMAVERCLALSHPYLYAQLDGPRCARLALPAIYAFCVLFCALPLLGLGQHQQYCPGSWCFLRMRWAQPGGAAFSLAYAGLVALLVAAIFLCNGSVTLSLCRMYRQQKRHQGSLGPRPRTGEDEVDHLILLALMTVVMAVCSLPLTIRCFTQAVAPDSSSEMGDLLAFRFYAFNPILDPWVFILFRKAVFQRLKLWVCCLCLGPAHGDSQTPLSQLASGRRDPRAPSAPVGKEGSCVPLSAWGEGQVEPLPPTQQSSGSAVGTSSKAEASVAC

In general, EC50 refers to the concentration needed to bring the measured effect to its halfway point. Read a low EC50 as an effect from little substance. The compound `CCCCC[C@H](O)CC[C@@H]1[C@H]2Cc3cccc(OCC(=O)O)c3C[C@H]2C[C@H]1O` [treprostinil] came in with an EC50 in test [1] of 64 nM. This counts as double-digit nanomolar.

In the case of `CC(C)N(CCCCOCC(=O)O)c1cnc(-c2ccccc2)c(-c2ccccc2)n1` [MRE-269, {4-[(5,6-Diphenylpyrazin-2-yl)(isopropyl)amino]butoxy}acetic Acid], the EC50 in test [2] stood at 200 nM.

The record behind these values is PMC8116805, “Inhibition of the Proliferation of Human Lung Fibroblasts by Prostacyclin Receptor Agonists is Linked to a Sustained cAMP Signal in the Nucleus” (Frontiers in Pharmacology, 2021).
